Experimental data reported in ChEMBL document CHEMBL4627350, “Drug repurposing and rediscovery: Design, synthesis and preliminary biological evaluation of 1-arylamino-3-aryloxypropan-2-ols as anti-melanoma agents” (Bioorg Med Chem, 2020).
pIC50: −log10 of the molar value. Calls of active or inactive are those of the source. The calls are words filed in the database; no cut-off is given here.

Key:
SK-MEL-5 [1] = assay: Antiproliferative activity against human SK-MEL-5 cells assessed as cell growth inhibition incubated for 48 hrs by MTT assay; format: functional, cell-based; details: SK-MEL-5, 48 h
SK-MEL-28 [2] = assay: Antiproliferative activity against human SK-MEL-28 cells assessed as cell growth inhibition incubated for 48 hrs by MTT assay; format: functional, cell-based; details: SK-MEL-28, 48 h
A-375 [3] = assay: Antiproliferative activity against human A375 cells assessed as cell growth inhibition incubated for 48 hrs by MTT assay; format: functional, cell-based; details: A-375, 48 h
SK-MEL-5 [4] = assay: Antiproliferative activity against human SK-MEL-5 cells assessed as cell growth inhibition at 100 uM incubated for 48 hrs by MTT assay relative to control; format: functional; details: SK-MEL-5, 48 h
SK-MEL-28 [5] = assay: Antiproliferative activity against human SK-MEL-28 cells assessed as cell growth inhibition at 100 uM measured after 48 hrs by MTT assay relative to control; format: functional; details: SK-MEL-28, 48 h
A-375 [6] = assay: Antiproliferative activity against human A375 cells assessed as cell growth inhibition at 100 uM measured after 48 hrs by MTT assay relative to control; format: functional; details: A-375, 48 h
SK-MEL-28 [7] = assay: Inhibition of colony formation in human SK-MEL-28 cells at 5 to 100 uM supplemented with fresh medium containing compound every 72 hrs for 2 weeks by crystal violet staining based assay; format: functional, cell-based
SK-MEL-28 [8] = assay: Cell cycle arrest in human SK-MEL-28 cells assessed as accumulation at G2/M phase after 24 hrs by […] dye staining based fluorescence assay; format: functional
SK-MEL-28 [9] = assay: Inhibition of colony formation in human SK-MEL-28 cells at 2 uM supplemented with fresh medium containing compound every 72 hrs for 2 weeks by crystal violet staining based assay; format: functional
SK-MEL-28 [10] = assay: Antimigratory activity against human SK-MEL-28 cells assessed as reduction in cell migration at 1 uM measured after 48 hrs by wound healing assay; format: functional, cell-based
SK-MEL-28 [11] = assay: Induction of apoptosis in human SK-MEL-28 cells incubated for 24 hrs by Annexin V-FITC/propidium iodide staining based flow cytometric analysis; format: functional, cell-based
Tubulin (Homo sapiens) = Tubulin (Homo sapiens) (UniProt P68371+Q9H4B7+P0DPH7+P68366+Q13509+Q71U36+P04350+Q3ZCM7+P07437+P68363+Q9BQE3+Q6PEY2+Q13885+Q9BVA1+Q9BUF5); assay: Inhibition of tubulin in human SK-MEL-28 cells assessed as disruption of microtubule network at 1 to 2 uM by Alexa Fluor 488 and DAPI staining based fluorescence microscopic method; format: cell-based
SK-MEL-5 [12] = assay: Potency index, ratio of carvedilol IC50 to test compound IC50 for antiproliferative activity against human SK-MEL-5 cells; format: functional
SK-MEL-28 [13] = assay: Potency index, ratio of carvedilol IC50 to test compound IC50 for antiproliferative activity against human SK-MEL-28 cells; format: functional
A-375 [14] = assay: Potency index, ratio of carvedilol IC50 to test compound IC50 for antiproliferative activity against human A375 cells; format: functional
SK-MEL-28 [15] = assay: Cell cycle arrest in human SK-MEL-28 cells assessed as accumulation at G2/M phase at 5 nM after 24 hrs by […] dye staining based fluorescence assay; format: functional

| SMILES | pIC50 (SK-MEL-5 [1]) | pIC50 (SK-MEL-28 [2]) | pIC50 (A-375 [3]) | further results |
| --- | --- | --- | --- | --- |
| OC(COc1cccc2[nH]c3ccccc3c12)CN1CCN(c2ccccc2)CC1 (racemic) | 4.77 | 4.73 | 4.79 | – |
| CC(C)NCC(O)COc1ccc(-c2ccccc2)cc1 (racemic) | 4.92 | 4.93 | 4.96 | – |
| OC(COc1ccc(-c2ccccc2)cc1)CN1CCN(c2ccccc2)CC1 (racemic) | 4.91 | 4.81 | 4.85 | – |
| O[C@@H](CNCc1ccc(-c2ccccc2)cc1)COc1cccc2[nH]c3ccccc3c12 | 5.57 | 5.30 | 5.28 | – |
| OC(CNc1ccc(-c2ccccc2)cc1)COc1cccc2[nH]c3ccccc3c12 (racemic) | 4.86 | 4.90 | 4.87 | – |
| OC(COc1cccc2[nH]c3ccccc3c12)CN1CCN(c2ccccn2)CC1 (racemic) | 4.58 | 4.61 | 4.50 | – |
| CC(C)NCC(O)COc1ccc(COCCOC(C)C)cc1 (stereo unspecified) [BISOPROLOL] | < 4.00 | < 4.00 | < 4.00 | inhibition at 100 µM (SK-MEL-5 [4]): 14.8%; inhibition at 100 µM (SK-MEL-28 [5]): 6.4%; inhibition at 100 µM (A-375 [6]): 28.3% |
| OC(COc1ccc(-c2ccccc2)cc1)CN1CCN(c2ccccn2)CC1 (racemic) | 4.67 | 4.60 | 4.55 | – |
| c1ccc(-c2ccc(CNCCCOc3cccc4[nH]c5ccccc5c34)cc2)cc1 | 5.37 | 5.36 | 5.18 | – |
| COc1ccccc1OCCNCC(O)COc1cccc2[nH]c3ccccc3c12 (stereo unspecified) [CARVEDILOL] | 4.86 | 4.81 | 4.89 | inhibition (SK-MEL-28 [7]): Active |
| COc1ccccc1OCCNCCCOc1cccc2[nH]c3ccccc3c12 | 5.21 | 5.18 | 5.16 | – |
| Cc1ccc2cccc(NCCCOc3cccc4[nH]c5ccccc5c34)c2n1 | 4.79 | 4.70 | 4.65 | – |
| CC(C)NCC(O)COc1cccc2[nH]c3ccccc3c12 (stereo unspecified) [CARAZOLOL] | 4.47 | 4.50 | 4.45 | – |
| CC(C)(C)NC[C@H](O)COc1nsnc1N1CCOCC1 [TIMOLOL] | < 4.00 | < 4.00 | < 4.00 | inhibition at 100 µM (SK-MEL-5 [4]): 33.3%; inhibition at 100 µM (SK-MEL-28 [5]): 18.6%; inhibition at 100 µM (A-375 [6]): 22.7% |
| Cc1ccc2cccc(NCC(O)COc3cccc4[nH]c5ccccc5c34)c2n1 (racemic) | 4.84 | 4.85 | 4.85 | – |
| COc1ccccc1OCCNCC(O)COc1ccc(-c2ccccc2)cc1 (racemic) | 5.23 | 5.22 | 5.08 | – |
| COc1ccccc1N1CCN(CCCOc2cccc3[nH]c4ccccc4c23)CC1 | 4.86 | 4.94 | 4.97 | – |

| SMILES | pIC50 (SK-MEL-5 [1]) | pIC50 (SK-MEL-28 [2]) | pIC50 (A-375 [3]) | further results |
| --- | --- | --- | --- | --- |
| COCCc1ccc(OCC(O)CNC(C)C)cc1 (stereo unspecified) [METOPROLOL] | < 4.00 | < 4.00 | < 4.00 | inhibition at 100 µM (SK-MEL-5 [4]): 38.8%; inhibition at 100 µM (SK-MEL-28 [5]): 30%; inhibition at 100 µM (A-375 [6]): 26.3% |
| COc1ccccc1OCCNCC(O)COc1cccc2ccccc12 (racemic) | 4.99 | 4.87 | 4.72 | – |
| CC(C)NCC(O)c1ccc(NS(C)(=O)=O)cc1 (stereo unspecified) [SOTALOL] | < 4.00 | < 4.00 | < 4.00 | inhibition at 100 µM (SK-MEL-5 [4]): 2.1%; inhibition at 100 µM (SK-MEL-28 [5]): 7.4%; inhibition at 100 µM (A-375 [6]): 15.2% |
| OC(CNCc1ccc(-c2ccccc2)cc1)COc1cccc(Nc2ccccc2)c1 (racemic) | 5.43 | 5.48 | 5.70 | Activity (SK-MEL-28 [8]): Dose-dependent effect; inhibition (INH) (SK-MEL-28 [9]): 100%; Activity (SK-MEL-28 [10]): Active; Activity (SK-MEL-28 [11]): Dose-dependent effect; inhibition (Tubulin (Homo sapiens)): Active |
| c1ccc(N2CCN(CCCOc3cccc4[nH]c5ccccc5c34)CC2)cc1 | 4.43 | 4.72 | 4.65 | – |
| OC(CNCc1ccc(-c2ccccc2)cc1)COc1cccc2[nH]c3ccccc3c12 (racemic) | 5.50 | 5.42 | 5.25 | Activity (SK-MEL-28 [10]): Active; Ratio IC50 (SK-MEL-5 [12]): 15; Ratio IC50 (SK-MEL-28 [13]): 15; Ratio IC50 (A-375 [14]): 15 |
| CC(C)NCC(O)COc1cccc2ccccc12 (stereo unspecified) | – | – | – | inhibition (SK-MEL-28 [7]): Active |
| COc1ccccc1OCCNCC(O)COc1ccc2ccccc2c1 (racemic) | 4.73 | 4.71 | 4.68 | – |
| COc1ccccc1N1CCN(CC(O)COc2cccc3[nH]c4ccccc4c23)CC1 (racemic) | 4.87 | 4.85 | 4.86 | – |
| c1ccc(Nc2cccc(OCCCNCc3ccc(-c4ccccc4)cc3)c2)cc1 | 5.33 | 5.42 | 5.64 | – |
| CC(C)NCC(O)COc1ccc(CC(N)=O)cc1 (stereo unspecified) [ATENOLOL] | < 4.00 | < 4.00 | < 4.00 | inhibition at 100 µM (SK-MEL-5 [4]): 5.2%; inhibition at 100 µM (SK-MEL-28 [5]): 6.9%; inhibition at 100 µM (A-375 [6]): 8.6% |
| CC(CCc1ccccc1)NCC(O)c1ccc(O)c(C(N)=O)c1 (stereo unspecified) [LABETALOL] | < 4.00 | < 4.00 | < 4.00 | inhibition at 100 µM (SK-MEL-5 [4]): 36.2%; inhibition at 100 µM (SK-MEL-28 [5]): 35.6%; inhibition at 100 µM (A-375 [6]): 38.1% |
| COc1cc2c(c(OC)c1OC)-c1ccc(OC)c(=O)cc1[C@@H](NC(C)=O)CC2 | – | – | – | Activity (SK-MEL-28 [15]): Active |
| COc1ccccc1OCCNC[C@H](O)COc1cccc2[nH]c3ccccc3c12 | 5.15 | 4.98 | 4.83 | – |
| COC(=O)CCc1ccc(OCC(O)CNC(C)C)cc1 (stereo unspecified) [ESMOLOL] | < 4.00 | < 4.00 | < 4.00 | inhibition at 100 µM (SK-MEL-5 [4]): 31.4%; inhibition at 100 µM (SK-MEL-28 [5]): 25.8%; inhibition at 100 µM (A-375 [6]): 22.8% |
| c1ccc(N2CCN(CCCOc3cccc4[nH]c5ccccc5c34)CC2)nc1 | 4.94 | 4.81 | 4.86 | – |
